Earlier results on one substance are cited in paper PMC3783256 (Marine Drugs, 2004).

This data set concerns the target RyR1-FKBP12 complex (Oryctolagus cuniculus, UniProt P11716). To be noted: read-out: EC50, weak agonists of the receptor; ref 8a.

Chain of RyR1-FKBP12 complex (P11716 whole entry): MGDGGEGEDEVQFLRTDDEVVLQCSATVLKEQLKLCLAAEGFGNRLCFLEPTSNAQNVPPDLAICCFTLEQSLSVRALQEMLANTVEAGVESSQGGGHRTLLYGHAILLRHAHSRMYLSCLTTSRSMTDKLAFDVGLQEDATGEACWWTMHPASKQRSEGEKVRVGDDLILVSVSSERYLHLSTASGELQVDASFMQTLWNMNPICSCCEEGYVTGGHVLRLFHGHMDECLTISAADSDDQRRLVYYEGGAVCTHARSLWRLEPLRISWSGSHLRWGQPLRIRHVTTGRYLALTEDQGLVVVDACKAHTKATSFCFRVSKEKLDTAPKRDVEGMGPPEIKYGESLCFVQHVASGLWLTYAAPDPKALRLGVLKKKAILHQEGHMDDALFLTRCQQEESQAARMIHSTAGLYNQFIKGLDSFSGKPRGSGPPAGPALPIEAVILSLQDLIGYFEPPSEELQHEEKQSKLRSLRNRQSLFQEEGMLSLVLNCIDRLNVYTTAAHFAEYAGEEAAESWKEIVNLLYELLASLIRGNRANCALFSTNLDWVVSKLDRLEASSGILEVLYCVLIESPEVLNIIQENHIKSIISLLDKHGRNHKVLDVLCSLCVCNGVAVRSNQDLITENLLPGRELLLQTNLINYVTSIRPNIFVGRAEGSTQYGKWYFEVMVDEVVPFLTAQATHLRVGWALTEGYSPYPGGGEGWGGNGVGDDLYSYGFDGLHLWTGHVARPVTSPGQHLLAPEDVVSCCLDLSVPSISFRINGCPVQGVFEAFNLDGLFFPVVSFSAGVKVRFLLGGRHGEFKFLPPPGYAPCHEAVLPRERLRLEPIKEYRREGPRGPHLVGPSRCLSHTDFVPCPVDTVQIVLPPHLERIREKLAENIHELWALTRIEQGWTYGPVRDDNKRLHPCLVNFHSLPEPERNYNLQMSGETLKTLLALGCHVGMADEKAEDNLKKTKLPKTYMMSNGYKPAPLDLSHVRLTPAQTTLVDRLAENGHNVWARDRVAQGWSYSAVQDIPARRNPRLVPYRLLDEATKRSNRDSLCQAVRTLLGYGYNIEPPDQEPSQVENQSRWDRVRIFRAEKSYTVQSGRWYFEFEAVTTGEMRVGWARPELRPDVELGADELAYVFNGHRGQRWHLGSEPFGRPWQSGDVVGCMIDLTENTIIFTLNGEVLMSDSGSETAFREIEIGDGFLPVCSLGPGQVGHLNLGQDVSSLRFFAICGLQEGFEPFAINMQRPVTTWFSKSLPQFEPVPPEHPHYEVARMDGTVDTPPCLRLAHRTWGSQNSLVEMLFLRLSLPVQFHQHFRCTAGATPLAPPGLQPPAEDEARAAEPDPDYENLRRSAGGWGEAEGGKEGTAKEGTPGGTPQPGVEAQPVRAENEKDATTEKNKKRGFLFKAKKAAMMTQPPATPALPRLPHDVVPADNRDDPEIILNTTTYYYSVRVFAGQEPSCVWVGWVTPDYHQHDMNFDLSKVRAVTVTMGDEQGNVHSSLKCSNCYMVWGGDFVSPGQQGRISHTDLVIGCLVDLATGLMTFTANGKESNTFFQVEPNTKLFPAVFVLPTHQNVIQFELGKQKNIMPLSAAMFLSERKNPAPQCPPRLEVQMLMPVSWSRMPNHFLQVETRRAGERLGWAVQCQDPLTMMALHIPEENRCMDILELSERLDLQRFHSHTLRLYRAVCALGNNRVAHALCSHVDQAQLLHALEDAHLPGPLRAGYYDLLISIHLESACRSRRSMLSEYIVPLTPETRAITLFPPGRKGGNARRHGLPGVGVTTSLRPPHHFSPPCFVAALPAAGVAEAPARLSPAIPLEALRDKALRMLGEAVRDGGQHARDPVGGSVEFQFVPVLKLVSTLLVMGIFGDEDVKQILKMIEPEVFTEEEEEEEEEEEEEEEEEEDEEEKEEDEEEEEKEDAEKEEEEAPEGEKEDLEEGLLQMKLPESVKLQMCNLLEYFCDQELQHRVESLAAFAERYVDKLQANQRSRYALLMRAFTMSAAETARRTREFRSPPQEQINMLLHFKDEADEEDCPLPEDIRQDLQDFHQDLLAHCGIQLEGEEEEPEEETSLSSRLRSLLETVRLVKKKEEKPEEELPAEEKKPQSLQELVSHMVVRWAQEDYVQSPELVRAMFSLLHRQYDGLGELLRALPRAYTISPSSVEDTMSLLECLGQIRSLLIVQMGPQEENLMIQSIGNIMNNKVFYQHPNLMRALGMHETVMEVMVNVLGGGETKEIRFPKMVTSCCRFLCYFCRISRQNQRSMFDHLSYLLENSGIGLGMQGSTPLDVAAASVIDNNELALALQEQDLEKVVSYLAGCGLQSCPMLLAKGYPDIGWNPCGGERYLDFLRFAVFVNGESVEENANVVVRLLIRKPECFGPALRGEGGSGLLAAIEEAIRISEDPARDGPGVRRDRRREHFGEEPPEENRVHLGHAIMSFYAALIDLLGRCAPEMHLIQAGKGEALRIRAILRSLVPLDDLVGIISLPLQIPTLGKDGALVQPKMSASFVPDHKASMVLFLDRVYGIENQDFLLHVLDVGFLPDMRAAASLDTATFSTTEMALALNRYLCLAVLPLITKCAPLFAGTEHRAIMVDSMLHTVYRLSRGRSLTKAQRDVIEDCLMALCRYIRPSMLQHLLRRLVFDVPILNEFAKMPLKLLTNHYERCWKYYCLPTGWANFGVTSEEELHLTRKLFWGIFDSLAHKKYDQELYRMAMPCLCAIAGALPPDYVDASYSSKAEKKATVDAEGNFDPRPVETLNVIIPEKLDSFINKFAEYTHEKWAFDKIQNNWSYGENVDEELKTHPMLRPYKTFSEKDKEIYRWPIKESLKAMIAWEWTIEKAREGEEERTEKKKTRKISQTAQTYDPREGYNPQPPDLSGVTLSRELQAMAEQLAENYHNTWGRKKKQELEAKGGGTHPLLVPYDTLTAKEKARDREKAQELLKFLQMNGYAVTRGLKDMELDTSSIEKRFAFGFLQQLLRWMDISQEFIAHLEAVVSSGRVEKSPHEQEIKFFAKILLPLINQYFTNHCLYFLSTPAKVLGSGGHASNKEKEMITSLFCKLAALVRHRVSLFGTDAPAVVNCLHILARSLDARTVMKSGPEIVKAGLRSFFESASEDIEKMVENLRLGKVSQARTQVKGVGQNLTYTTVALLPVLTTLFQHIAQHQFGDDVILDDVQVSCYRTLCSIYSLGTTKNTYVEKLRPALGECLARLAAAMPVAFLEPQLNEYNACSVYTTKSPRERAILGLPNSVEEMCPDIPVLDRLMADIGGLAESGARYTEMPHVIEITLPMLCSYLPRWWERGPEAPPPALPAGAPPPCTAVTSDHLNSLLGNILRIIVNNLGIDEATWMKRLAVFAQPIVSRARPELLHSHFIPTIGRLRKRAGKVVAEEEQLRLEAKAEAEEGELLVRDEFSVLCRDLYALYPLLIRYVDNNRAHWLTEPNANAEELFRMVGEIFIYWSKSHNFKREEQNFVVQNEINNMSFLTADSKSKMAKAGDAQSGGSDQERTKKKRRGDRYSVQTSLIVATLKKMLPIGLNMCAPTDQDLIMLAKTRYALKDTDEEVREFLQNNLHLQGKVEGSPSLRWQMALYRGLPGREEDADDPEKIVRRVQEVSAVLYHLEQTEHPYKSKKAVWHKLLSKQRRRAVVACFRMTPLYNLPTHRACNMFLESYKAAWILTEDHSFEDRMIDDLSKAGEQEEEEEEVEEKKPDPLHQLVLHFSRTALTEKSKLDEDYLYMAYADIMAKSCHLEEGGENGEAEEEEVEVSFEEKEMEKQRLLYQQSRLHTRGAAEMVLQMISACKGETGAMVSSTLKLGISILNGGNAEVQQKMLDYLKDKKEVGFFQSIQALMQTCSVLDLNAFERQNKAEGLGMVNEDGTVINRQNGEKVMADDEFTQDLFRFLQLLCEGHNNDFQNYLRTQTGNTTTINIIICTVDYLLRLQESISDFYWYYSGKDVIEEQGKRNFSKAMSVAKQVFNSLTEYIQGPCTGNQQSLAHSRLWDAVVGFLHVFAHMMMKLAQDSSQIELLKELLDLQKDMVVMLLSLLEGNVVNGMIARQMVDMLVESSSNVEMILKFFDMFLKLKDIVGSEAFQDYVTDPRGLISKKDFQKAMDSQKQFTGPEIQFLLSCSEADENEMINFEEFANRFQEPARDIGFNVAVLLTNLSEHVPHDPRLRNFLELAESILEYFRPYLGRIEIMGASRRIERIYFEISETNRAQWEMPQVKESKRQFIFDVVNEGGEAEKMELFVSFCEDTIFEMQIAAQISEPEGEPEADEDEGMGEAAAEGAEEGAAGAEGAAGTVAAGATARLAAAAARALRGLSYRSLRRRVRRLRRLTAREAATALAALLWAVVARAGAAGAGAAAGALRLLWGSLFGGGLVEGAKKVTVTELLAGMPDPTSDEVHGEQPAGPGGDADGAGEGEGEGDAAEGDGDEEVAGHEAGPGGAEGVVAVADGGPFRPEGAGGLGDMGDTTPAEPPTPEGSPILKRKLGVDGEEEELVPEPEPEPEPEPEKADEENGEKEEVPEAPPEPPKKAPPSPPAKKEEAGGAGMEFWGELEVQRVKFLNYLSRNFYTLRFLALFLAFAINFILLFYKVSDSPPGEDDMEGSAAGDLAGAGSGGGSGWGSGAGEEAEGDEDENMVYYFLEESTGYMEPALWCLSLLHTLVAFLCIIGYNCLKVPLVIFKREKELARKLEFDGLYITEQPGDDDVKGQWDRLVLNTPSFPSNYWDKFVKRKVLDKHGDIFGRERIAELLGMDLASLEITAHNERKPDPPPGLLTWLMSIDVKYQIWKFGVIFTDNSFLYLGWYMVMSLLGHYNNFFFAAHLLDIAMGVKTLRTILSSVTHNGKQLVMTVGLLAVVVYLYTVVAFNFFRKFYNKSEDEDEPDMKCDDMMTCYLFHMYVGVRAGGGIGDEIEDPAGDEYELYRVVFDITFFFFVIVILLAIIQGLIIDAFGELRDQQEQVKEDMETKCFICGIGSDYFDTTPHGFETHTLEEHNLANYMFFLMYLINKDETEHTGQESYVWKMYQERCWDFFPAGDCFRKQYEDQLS
Chain of RyR1-FKBP12 complex (P62943 2-108 partner limits assumed): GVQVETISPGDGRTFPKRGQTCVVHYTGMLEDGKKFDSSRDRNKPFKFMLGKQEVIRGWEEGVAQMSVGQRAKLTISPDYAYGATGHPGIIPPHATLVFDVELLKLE

The EC50 is the concentration at which the effect is half-maximal. In the case of 15,34-O-di-sulfatobastadin-7, the EC50 is 13.6 µM.
